According to PubChem BioAssay AID248 (DTP/NCI, 2004):
Where “and” joins values, the source holds several entries; their conditions need not be identical. Equal values may be shown once. Inconclusive results and toxic doses are left out. No stated cut-off is given here; in the data, active means T/C of 150% or more; inactive means T/C below 125%.

Tested on: L1210 leukemia ip in BDF1 mice, survival T/C
Experiment: NCI In Vivo Anticancer Drug Screen. Data for tumor model L1210 Leukemia (intraperitoneal) in B6D2F1 (BDF1) mice
Settings: endpoint: mean survival time, higher = longer survival
Outline: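 Tumor cells were implanted, animals were treated, and survival was followed. The result divides the treated measurement by the vehicle-control measurement.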

[1] = dose: 100.0 mg/kg/injection, schedule: Q01DX001 (ip), vehicle: carboxymethylcellulose (CMC)
[2] = dose: 200.0 mg/kg/injection, schedule: Q01DX001 (ip), vehicle: carboxymethylcellulose (CMC)
[3] = dose: 400.0 mg/kg/injection, schedule: Q01DX001 (ip), vehicle: carboxymethylcellulose (CMC)
[4] = dose: 100.0 mg/kg/injection, schedule: Q01DX001 (ip), vehicle: saline
[5] = dose: 200.0 mg/kg/injection, schedule: Q01DX001 (ip), vehicle: saline
[6] = dose: 400.0 mg/kg/injection, schedule: Q01DX001 (ip), vehicle: saline
[7] = dose: 50.0 mg/kg/injection, schedule: Q01DX009 (ip), vehicle: Klucel (hydroxypropylcellulose) (HPC)
[8] = dose: 100.0 mg/kg/injection, schedule: Q01DX009 (ip), vehicle: saline
[9] = dose: 100.0 mg/kg/injection, schedule: Q04DX003 (ip), vehicle: saline with Tween-80
[10] = dose: 100.0 mg/kg/injection, schedule: Q04DX003 (ip), vehicle: Klucel (hydroxypropylcellulose) (HPC)
[11] = dose: 200.0 mg/kg/injection, schedule: Q04DX003 (ip), vehicle: Klucel (hydroxypropylcellulose) (HPC)
[12] = dose: 400.0 mg/kg/injection, schedule: Q04DX003 (ip), vehicle: Klucel (hydroxypropylcellulose) (HPC)
[13] = dose: 25.0 mg/kg/injection, schedule: Q04DX002 (ip), vehicle: Klucel (hydroxypropylcellulose) (HPC)
[14] = dose: 100.0 mg/kg/injection, schedule: Q04DX003 (ip), vehicle: saline
[15] = dose: 200.0 mg/kg/injection, schedule: Q04DX003 (ip), vehicle: saline
[16] = dose: 400.0 mg/kg/injection, schedule: Q04DX003 (ip), vehicle: saline
[17] = dose: 100.0 mg/kg/injection, schedule: Q01DX009 (ip), vehicle: Klucel (hydroxypropylcellulose) (HPC)
[18] = dose: 200.0 mg/kg/injection, schedule: Q01DX009 (ip), vehicle: Klucel (hydroxypropylcellulose) (HPC)
[19] = dose: 400.0 mg/kg/injection, schedule: Q01DX009 (ip), vehicle: Klucel (hydroxypropylcellulose) (HPC)

Measured: T/C

O=C(O)c1ccc(Br)cc1F
inactive: [1] 89 % of control | dose: 100.0 mg/kg/injection, schedule: Q01DX009 (ip), vehicle: carboxymethylcellulose (CMC) 109 % of control and 92 % of control | dose: 100.0 mg/kg/injection, schedule: Q04DX002 (ip), vehicle: Klucel (hydroxypropylcellulose) (HPC) 97 % of control | dose: 100.0 mg/kg/injection, schedule: Q04DX002 (ip), vehicle: carboxymethylcellulose (CMC) 104 % of control and 107 % of control | dose: 100.0 mg/kg/injection, schedule: Q04DX003 (ip), vehicle: carboxymethylcellulose (CMC) 97 % of control | [2] 99 % of control | dose: 200.0 mg/kg/injection, schedule: Q01DX009 (ip), vehicle: carboxymethylcellulose (CMC) 116 % of control and 89 % of control | dose: 200.0 mg/kg/injection, schedule: Q04DX002 (ip), vehicle: Klucel (hydroxypropylcellulose) (HPC) 97 % of control | dose: 200.0 mg/kg/injection, schedule: Q04DX002 (ip), vehicle: carboxymethylcellulose (CMC) 102 % of control and 91 % of control | dose: 200.0 mg/kg/injection, schedule: Q04DX003 (ip), vehicle: carboxymethylcellulose (CMC) 99 % of control | [3] 89 % of control | dose: 400.0 mg/kg/injection, schedule: Q01DX009 (ip), vehicle: carboxymethylcellulose (CMC) 95 % of control and 92 % of control | dose: 400.0 mg/kg/injection, schedule: Q04DX002 (ip), vehicle: Klucel (hydroxypropylcellulose) (HPC) 97 % of control | dose: 400.0 mg/kg/injection, schedule: Q04DX002 (ip), vehicle: carboxymethylcellulose (CMC) 99 % of control and 100 % of control | dose: 400.0 mg/kg/injection, schedule: Q04DX003 (ip), vehicle: carboxymethylcellulose (CMC) 105 % of control

CC1OC1COC1COC2C(OCC3OC3C)COC12 (centres undefined)
inactive: [4] 106 % of control | [5] 106 % of control | [6] 101 % of control

CCCCOC(=O)CCCCC(=O)OC(C)C(=O)OCCCC (centres undefined)
inactive: [4] 102 % of control | [5] 102 % of control | [6] 89 % of control

CC(=O)CC(=O)C(F)(F)F.CC(=O)CC(=O)C(F)(F)F.CC(=O)CC(=O)C(F)(F)F.[Cr]
inactive: [1] 109 % of control | [2] 96 % of control | [3] 98 % of control

NC(N)=NC(N)=Nc1ccc(Cl)c(Cl)c1
inactive: dose: 25.0 mg/kg/injection, schedule: Q01DX009 (ip), vehicle: Klucel (hydroxypropylcellulose) (HPC) 100 % of control | dose: 25.0 mg/kg/injection, schedule: Q01DX009 (ip), vehicle: saline 104 % of control | [7] 104 % of control | dose: 50.0 mg/kg/injection, schedule: Q01DX009 (ip), vehicle: saline 98 % of control | dose: 75.0 mg/kg/injection, schedule: Q01DX009 (ip), vehicle: Klucel (hydroxypropylcellulose) (HPC) 102 % of control | [8] 91 % of control | [9] 100 % of control

CCCCCCCCCCCCCCCCSc1ccc2ccccc2c1
inactive: [10] 100 % of control | [11] 96 % of control | [12] 87 % of control

O=C(O)c1ccccc1Cl.[Ni]
inactive: [13] 94 % of control | dose: 50.0 mg/kg/injection, schedule: Q04DX002 (ip), vehicle: Klucel (hydroxypropylcellulose) (HPC) 109 % of control

NC(CSS(=O)(=O)O)=NCCCc1ccccc1
inactive: dose: 12.5 mg/kg/injection, schedule: Q04DX002 (ip), vehicle: Klucel (hydroxypropylcellulose) (HPC) 97 % of control | [13] 108 % of control

CCOC(CN=Cc1ccccn1)OCC
inactive: [14] 97 % of control | [15] 91 % of control | [16] 90 % of control

CC1([N+](=O)[O-])COP(=O)(Nc2ccccc2F)OC1 (centres undefined)
inactive: [1] 101 % of control | [2] 95 % of control | [3] 104 % of control

C=C(C)c1cc2c(cc1O)OCC2C (centres undefined)
inactive: [7] 101 % of control | [17] 92 % of control and 96 % of control | [10] 107 % of control | [18] 86 % of control and 89 % of control | [11] 94 % of control | [19] 96 % of control | [12] 94 % of control

CCN(CC)CCOc1ccc(C(=O)/C(=C/c2ccc3c(c2)OCO3)c2ccccc2)cc1
inactive: dose: 100.0 mg/kg/injection, schedule: Q04DX003 (sc), vehicle: olive oil, sesame oil, peanut oil 103 % of control | dose: 200.0 mg/kg/injection, schedule: Q04DX003 (sc), vehicle: olive oil, sesame oil, peanut oil 97 % of control | dose: 400.0 mg/kg/injection, schedule: Q04DX003 (sc), vehicle: olive oil, sesame oil, peanut oil 100 % of control

O=C(O)NC1(c2ccccc2)OC1c1ccccc1 (centres undefined)
inactive: dose: 50.0 mg/kg/injection, schedule: Q01DX001 (ip), vehicle: saline with Tween-80 115 % of control | dose: 100.0 mg/kg/injection, schedule: Q01DX001 (ip), vehicle: saline with Tween-80 98 % of control | dose: 200.0 mg/kg/injection, schedule: Q01DX001 (ip), vehicle: saline with Tween-80 94 % of control

Nc1ccc(NC(=S)S)cc1
inactive: dose: 75.0 mg/kg/injection, schedule: Q01DX001 (ip), vehicle: saline 93 % of control | dose: 150.0 mg/kg/injection, schedule: Q01DX001 (ip), vehicle: saline 93 % of control

CCOC(=O)c1cnc2c(OC)cccc2c1Cl
inactive: [8] 98 % of control | [14] 102 % of control | dose: 200.0 mg/kg/injection, schedule: Q01DX009 (ip), vehicle: saline 96 % of control | [15] 109 % of control | [16] 98 % of control

CCCCCCCCCCCCCCCCCC(CCCCCCCCCCCCCCCCC)=NNC(N)=S
inactive: dose: 100.0 mg/kg/injection, schedule: Q01DX009 (ip), vehicle: other 92 % of control | dose: 200.0 mg/kg/injection, schedule: Q01DX009 (ip), vehicle: other 89 % of control | dose: 400.0 mg/kg/injection, schedule: Q01DX009 (ip), vehicle: other 97 % of control

CC(C)CC(NC(=O)OCc1ccccc1)C(=O)NCCCCCCNCCCCCCNC(=O)C(CC(C)C)NC(=O)OCc1ccccc1 (centres undefined)
inactive: dose: 50.0 mg/kg/injection, schedule: Q01DX001 (ip), vehicle: saline 95 % of control | [5] 98 % of control

CCOC(=N)C(O)c1ccccc1 (centres undefined)
inactive: dose: 100.0 mg/kg/injection, schedule: Q04DX002 (ip), vehicle: saline with Tween-80 111 % of control | dose: 200.0 mg/kg/injection, schedule: Q04DX002 (ip), vehicle: saline with Tween-80 100 % of control | dose: 400.0 mg/kg/injection, schedule: Q04DX002 (ip), vehicle: saline with Tween-80 100 % of control

Cc1ccc(NC(=O)Nc2cccc(F)c2)cc1C
inactive: [17] 94 % of control | [18] 97 % of control | [19] 95 % of control

CN(C)c1ccc(C(=O)CCCN2CCC(O)(c3ccc(C(F)(F)F)cc3)CC2)cc1
inactive: dose: 50.0 mg/kg/injection, schedule: Q01DX001 (ip), vehicle: Klucel (hydroxypropylcellulose) (HPC) 97 % of control | dose: 100.0 mg/kg/injection, schedule: Q01DX001 (ip), vehicle: Klucel (hydroxypropylcellulose) (HPC) 96 % of control | dose: 200.0 mg/kg/injection, schedule: Q01DX001 (ip), vehicle: Klucel (hydroxypropylcellulose) (HPC) 105 % of control

CCCCCCCCCCNC(=O)C[n+]1cccc(C(=O)N(CC)CC)c1
inactive: dose: 6.25 mg/kg/injection, schedule: Q04DX003 (ip), vehicle: saline 94 % of control | dose: 12.5 mg/kg/injection, schedule: Q04DX003 (ip), vehicle: saline 96 % of control | dose: 25.0 mg/kg/injection, schedule: Q04DX003 (ip), vehicle: saline 93 % of control

NC(N)=Nc1nc(N)nc(N)n1
inactive: dose: 50.0 mg/kg/injection, schedule: Q01DX009 (ip), vehicle: saline with Tween-80 108 % of control

CSc1nc(N)c(C(N)=O)cc1C#N
inactive: [9] 89 % of control | dose: 200.0 mg/kg/injection, schedule: Q04DX003 (ip), vehicle: saline with Tween-80 89 % of control | dose: 400.0 mg/kg/injection, schedule: Q04DX003 (ip), vehicle: saline with Tween-80 87 % of control

CC(C)N(C(=O)Nc1ccc(Cl)cc1)C1CCCCC1
inactive: dose: 87.5 mg/kg/injection, schedule: Q04DX003 (ip), vehicle: carboxymethylcellulose (CMC) 101 % of control | dose: 175.0 mg/kg/injection, schedule: Q04DX003 (ip), vehicle: carboxymethylcellulose (CMC) 96 % of control | dose: 350.0 mg/kg/injection, schedule: Q04DX003 (ip), vehicle: carboxymethylcellulose (CMC) 95 % of control

CCN(CC)CCSSCCN(CC)CC.[Cl][Mn][Cl]
inactive: [4] 103 % of control
